Reference: publication PMC8162437, “Copper-mediated peptide arylation selective for the N-terminus” (Chemical Science, 2020)
Starred links: 1 amine or outer side, 2 acyl side, 3 side chain; linkers in the order of their positions; H or OH if unused. Non-standard residues stand in square brackets, D forms with d. Residues, ends and D or L forms follow the SMILES beside them. X1 = CNS(=O)(=O)c1ccccc1N([C@H](C(=O)[*:2])C(C)C)[*:1]

Tested on: Pfu aminopeptidase I
Settings: 100 μM 5, 40 μM 5a, 0.08 μg mL−1 aminopeptidase I, 20 μM Co(OAc)2, NaOAc buffer 5 mM, pH 6.0, 95 °C, quenched with EDTA, RP-HPLC at 220 and 310 nm, internal standard 19, starting material peak area compared with 0 h
Description: (b) RP-HPLC analysis of the enzymatic degradation of angiotensin IV (5) and arylated angiotensin IV (5a) with aminopeptidase I. Conditions: 100 μM 5, 40 μM 5a, 0.08 μg mL^−1 aminopeptidase I, and 20 μM Co(OAc)2 in NaOAc buffer (5 mM, pH = 6.0) at 95 °C. Internal standard 19 for quantification. (c) Peptidase activity: time course for aminopeptidease I cleavage of arylated angiotensin IV (5a, orange) and angiotensin IV (5, blue).
We decided to investigate whether the charge and structural perturbation afforded by the N-arylation engendered peptide stability towards enzymatic degradation.
Enzymatic Degradation with Aminopeptidase I
Stability Test of Peptides to Aminopeptidase I
1.7 mM in 20% aq. MeCN) and Co(OAc)2 (50 µL, 200 µM in H2O) in NaOAc buffer (338 µL, 5 mM,
pH = 6.0) was added aminopeptidase I (75 µL, 0.5 mg/mL in Tris buffer (50 mM, pH = 6.0). A 50 -
µL aliquot was immediately removed after addition of the enzyme and was quenched with EDTA
(5 µL, 1 M in H2O). Internal standard 2-amino-N,N’-dimethylbenzenesulfonamide 19 was added
(1.5 μL, 4 mM in DMSO) and the 0 h timepoint was analyzed by RP-HPLC (20-60% MeCN over
28 min) at 220 nm and 310 nm. The reaction mixture was then heated to 95 °C and 50-µL aliquots
were removed and quenched with EDTA (5 µL, 1 M in H2O) at 10 min, 30 min, 1 h, and 2 h. After
quenching, the internal standard 19 was added (1.5 μL, 4 mM in DMSO) and analyzed by RP- […]

SMILES | Stability towards enzymatic degradation by aminopeptidase I, after 2 h incubation (2 h) | Stability towards enzymatic degradation by aminopeptidase I, after 10 minutes (10 min)
CC[C@H](C)[C@H](NC(=O)[C@H](Cc1ccc(O)cc1)NC(=O)[C@@H](Nc1ccccc1S(=O)(=O)NC)C(C)C)C(=O)N[C@@H](Cc1c[nH]cn1)C(=O)N1CCC[C@H]1C(=O)N[C@@H](Cc1ccccc1)C(=O)O [5a] (H-[X1]YIHPF-OH) | remained stable | –
CC[C@H](C)[C@H](NC(=O)[C@H](Cc1ccc(O)cc1)NC(=O)[C@@H](N)C(C)C)C(=O)N[C@@H](Cc1cnc[nH]1)C(=O)N1CCC[C@H]1C(=O)N[C@@H](Cc1ccccc1)C(=O)O [compound 5, Angiotensin IV] | – | completely consumed
